In patent publication US20150203517A1, “Prodrugs of Compounds that Enhance Antifungal Activity and Compositions of Said Prodrugs” (priority 2014, published 2015):
Where a name gives a salt, the structure may show the parent alone.

Experiments:
[1] = Saline solubility at 1.00 mg/mL and 0.50 mg/mL (with pH by indicator paper); format: physicochemical; conditions: for solubility at 1 h: saline or isotonic, thermodynamic from solid, 1.00 mg/mL as hydroxamate 1, shaken 1 hour, centrifuged, soluble = no precipitate formed, read-out: Soluble at 1.00 mg/mL of MGCD290 (Y/N); for pH at 1.00 mg/mL of MGCD290 in saline: final concentration of hydroxamate 1 1.00 mg/mL, pH indicator paper
Procedure, shortened: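 Prodrug was weighed to give 1.00 mg/mL hydroxamate equivalent in saline, vortexed 1 h and centrifuged, and diluted to 0.50 mg/mL if it precipitated. pH was checked by indicator paper. Stability in solution diluted 1:1 with saline was followed by HPLC-UV at 0, 6 and 24 h.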

[2] = Saline solubility at 10.00 mg/mL, 5.00 mg/mL and 2.50 mg/mL (with pH by pH meter); format: physicochemical; conditions: saline or isotonic, thermodynamic from solid, concentration expressed as equivalent of Cpd 1, highest tested concentration soluble, read-out: Highest prodrug solubility in saline (equivalent of Cpd 1)
Method: The following procedures were used
Step 1. Sample preparation. An amount of the compound sample was precisely weighed to correspond to around 10 mg of the hydroxamate of compound 1, taking into account the mass of the leaving group and the salt factor if applicable. The sample was placed in a 16×125 mm glass screw cap tube. Saline was added so that the final concentration of hydroxamate 1 was 10.00 mg/mL. The tube was shaken for 1 hour on a Vortex apparatus then centrifuged at 3000 rpm (1800 rcf) for 5 minutes. If the compound example was soluble (no precipitate formed) then the pH was measured with a pH meter, and the procedure continued to step 2. If a precipitate formed then the sample was diluted with saline so that the final concentration of the hydroxamate of compound 1 became 5.00 mg/mL, and the shaking and centrifuging steps were repeated. If the compound example was soluble (no precipitate formed) then the pH was measured with a pH meter, and the procedure continued to step 2. If a precipitate formed then the sample was diluted with saline so that the final concentration of the hydroxamate of compound 1 became 2.50 mg/mL, and the shaking and centrifuging steps were repeated. If the compound example was soluble (no precipitate formed) then the pH was measured with a pH meter, and the procedure continued to step 2

[3] = Conversion of prodrugs to compound 1 in human plasma; format: in vitro ADME; conditions: human plasma (Na-Heparin treated), 37° C.
Method: (§1) Step 1. Sample preparation. A quantity of blank human plasma (Na-Heparin treated) was incubated at 37° C. for 30 minutes. An amount of the compound sample was precisely weighed to correspond to around 5.00 mg of the hydroxamate of compound 1, taking into account the mass of the leaving group and the salt factor if applicable. The sample was placed in a 16×125 mm glass screw cap tube. The incubated blank human plasma was added so that the final concentration of hydroxamate 1 was 1.00 mg/mL. The sample was sonicated for 30 seconds, shaken for 30 seconds on a Vortex apparatus, and run through the HPLC procedure of Step 2 to get a time point zero value. The samples were stored in an incubator at 37° C., and the HPLC analysis of Step 2 was repeated in 30 minutes and 1 hour.
(§2) Step 2. Protein precipitation and HPLC analysis of plasma. A 50 μL aliquot of plasma was taken in a 1.5 mL Eppendorf vial, to which was added 200 μL of MeCN. The vial was capped and shaken on a Vortex apparatus for 30 seconds, then centrifuged at 13000 rpm (15700 rcf) for five minutes. When centrifuging was complete, 100 μL of the supernatant was placed in an injection vial containing an insert, to which was added 100 μL of 0.1% formic acid in water. The vial was capped and shaken on a Vortex apparatus for 30 seconds, and the contents were injected into the HPLC-UV instrument, and a comparison was made of the retention time, peak areas and level of degradation (if any) using the GDADI50 method.
Step 3. Reference sample preparation. An amount of the compound sample was precisely weighed to correspond to around 5.00 mg of the hydroxamate of compound 1, taking into account the mass of the leaving group and the salt factor if applicable. The sample was placed in a 16×125 mm glass screw cap tube. A quantity of MeCN/H2O 50/50 v/v was added so that the final concentration of hydroxamate 1 was 1.00 mg/mL. An injection vial was filled with 100 μL of this sample stock solution and 900 μL of a solution of 40/60 MeCN/0.1% formic acid in water. The vial was capped and the contents were injected into the HPLC-UV instrument, and a comparison was made of the retention time, peak areas and level of degradation (if any) using the GDADI50 method.

[4] = Conversion of prodrugs to compound 1 in mouse plasma; format: in vitro ADME; conditions: mouse plasma (Na-Heparin treated); for Prodrug loss at 0.5 hr / Prodrug loss at 1 hr: 37° C.; for Prodrug solubility in plasma: equivalent to 1.00 mg/mL of compound 1, * = Plasma quickly became cloudy
Method: as §1, with “blank mouse” for “blank human”, “repeated at” for “repeated in”, “1 hour” for “1 hour.”
as §2

| solubility at 1 h [1] [µg/mL] | solubility at 1 h [2] [µg/mL] | Prodrug loss at 0.5 hr [3] [%] | Prodrug loss at 1 hr [3] [%] | Prodrug loss at 0.5 hr [4] [%] | Prodrug loss at 1 hr [4] [%] | Prodrug solubility in plasma [4] | pH at 1.00 mg/mL of MGCD290 in saline [1] | Compound |
| --- | --- | --- | --- | --- | --- | --- | --- | --- |
| > 1000 | 1000 | 99.3 | 100.0 | 100 | 100 | Yes* | – | COCCOCCOCC(=O)NCCCC[C@H](NC(=O)COCCOCCOC)C(=O)NCCC(=O)ONC(=O)Cc1ccc(CCCCc2ccccc2)cc1 [Compound 63, (S)—N,N′-(6-Oxo-6-(3-oxo-3-(2-(4-(4-phenylbutyl)phenyl)acetamidooxy)propylamino)hexane-1,5-diyl)bis(2-(2-(2-methoxyethoxyl)ethoxy)acetamide)] |
| > 1000 | 10000 | 78.7 | 100.0 | 100 | 100 | Yes | 4.5-5 | COCCOCCOCC(=O)NCCCC[C@H](NC(=O)COCCOCCOC)C(=O)N(C)CCCC(=O)ONC(=O)Cc1ccc(CCCCc2ccccc2)cc1 [Compound 64, (S)—N,N′-(6-(Methyl(4-oxo-4-(2-(4-(4-phenylbutyl)phenyl)acetamidooxy)butyl)amino)-6-oxohexane-1,5-diyl)bis(2-(2-(2-methoxyethoxyl)ethoxy)acetamide)] |
| > 1000 | 10000 | 65.5 | 90.5 | 98 | 99 | Yes* | 4.5-5 | COCCOCCOCCOCCOCCOCC(=O)N1CCC(CCC(=O)ONC(=O)Cc2ccc(CCCCc3ccccc3)cc2)CC1 [Compound 111, N-(3-(1-2,5,8,11,14,17-Hexaoxanonadecanepiperidin-4-yl)propanoyloxy)-2-(4-(4-phenylbutyl)phenyl)acetamide] |
| > 1000 | 1000 | 69.4 | 93.4 | 100 | 100 | Yes* | 4.5-5 | COCCOCC(=O)NCCCC[C@H](NC(=O)COCCOC)C(=O)NCCCC(=O)ONC(=O)Cc1ccc(CCCCc2ccccc2)cc1 [Compound 100] |
| > 1000 | 10000 | 98.7 | 99.8 | 100 | 100 | Yes* | 4.5-5 | NCCNCC(=O)NCCC(=O)ONC(=O)Cc1ccc(CCCCc2ccccc2)cc1 [Compound 135, 2-(2-aminoethylamino)-N-(3-oxo-3-(2-(4-(4-phenylbutyl)phenyl)acetamidooxy)propyl) acetamide dihydrochloride] |
| > 1000 | 10000 | 85.5 | 99.6 | 100 | 100 | Yes* | 4.5-5 | Cl.O=C(Cc1ccc(CCCCc2ccccc2)cc1)NOC(=O)CCC1CCNCC1 [Compound 110, 2-(4-(4-Phenylbutyl)phenyl)-N-(3-(piperidin-4-yl)propanoyloxy) acetamide hydrochloride] |

Continued, compound first:

| Compound | solubility at 1 h [1] [µg/mL] | solubility at 1 h [2] [µg/mL] | Prodrug loss at 0.5 hr [3] [%] | Prodrug loss at 1 hr [3] [%] | Prodrug loss at 0.5 hr [4] [%] | Prodrug loss at 1 hr [4] [%] | Prodrug solubility in plasma [4] | pH at 1.00 mg/mL of MGCD290 in saline [1] |
| --- | --- | --- | --- | --- | --- | --- | --- | --- |
| NCCCC[C@H](N)C(=O)NCCC(=O)ONC(=O)Cc1ccc(CCCCc2ccccc2)cc1 [Compound 14, (S)-2,6-Diamino-N-(3-oxo-3-(2-(4-(4-phenylbutyl)phenyl)acetamidooxy)propyl)hexanamide di-hydrochloride] | > 1000 | 10000 | 100 | 100.0 | 100 | 100 | Yes* | 4-4.5 |
| COCCOCCOCCOCCOCCOCC(=O)N1CCC(CCCC(=O)ONC(=O)Cc2ccc(CCCCc3ccccc3)cc2)CC1 [Compound 122] | > 1000 | 10000 | 66.6 | 91.9 | 100 | 100 | Yes** | 5.-5.5 |
| COCCOCCOCCOCCOCCOCC(=O)N1CCC(C(=O)ONC(=O)Cc2ccc(CCCCc3ccccc3)cc2)CC1 [Compound 120] | > 1000 | – | – | – | 100 | 100 | Yes | 4.5-5 |
| NCC1(C(=O)ONC(=O)Cc2ccc(CCCCc3ccccc3)cc2)CC1 [Compound 54, N-(1-(aminomethyl)cyclopropanecarbonyloxy)-2-(4-(4-phenylbutyl)phenyl)acetamide] | > 1000 | 2500 | 50.9 | 71.6 | 62.6 | 100 | Yes | 4-4.5 |
| COCCOCC(=O)NCCCC[C@H](NC(=O)COCCOC)C(=O)NCCC(=O)ONC(=O)Cc1ccc(CCCCc2ccccc2)cc1 [Compound 68] | > 1000 | 10000 | 98.6 | 99.4 | 100 | 100 | Yes* | 4.5-5 |
| COCCOCCOCC(=O)NCCCC[C@H](NC(=O)COCCOCCOC)C(=O)NCCCC(=O)ONC(=O)Cc1ccc(CCCCc2ccccc2)cc1 [Compound 99, (S)—N,N-(6-Oxo-6-(4-oxo-4-(2-(4-(4-phenylbutyl)phenyl)acetamidooxy)butylamino)hexane-1,5-diyl)bis(2-(2-(2-methoxyethoxyl)ethoxy)acetamide)] | > 1000 | 2500 | 22.7 | 89.1 | 100 | 100 | Yes* | 4.5-5 |
